System: murine dermal fibroblasts
Test: RNA-Seq of newborn murine dermal fibroblasts
Assay type: cell-based, mouse
Conditions: 10^−7 M, 24 h
Procedure: All animal studies followed guidelines outlined by the NIH Guide for the Care and Use of Laboratory Animals and protocols were approved by the Institutional Animal Care and Use Committee at the NIEHS or the UAB. […] Skin samples from newborn C57BL/6 mice were collected at the NIEHS. Dermal fibroblasts were isolated from the skin of newborn mice, 1–2 day old. Briefly, we followed the protocols described previously. The skin was washed in PBS, cut into smaller pieces and incubated in 2.4 U/ml of dispase II (Roche) overnight at 4 °C. The dermis was separated from the epidermis and incubated in 0.1% collagenase (Roche) at 4 °C overnight. […] Single cell suspension was prepared by pipetting and draining through a cell strainer. After centrifugation, cell pellets were suspended in DMEM medium containing 10% charcoal-stripped fetal bovine serum (cFBS), mouse fibroblasts growth factor (FGF) and 1% antibiotic, and inoculated into tissue culture dishes (Midwest Scientific, TPP). Cells, in early passages, from different mice were pooled together to provide representative samples for experiments. Fibroblasts were cultured in Petri dishes (10 cm in diameter) in DMEM and 10% cFBS and triplicate semi-confluent cultures were treated as described.
Triplicate cultures of murine fibroblasts were used for RNA isolation (RNAeasy Micro kit, Qiagen), the RNA samples were combined for each condition and at least 200 ng of RNA for each sample was used to create libraries for RNA sequencing by BGI Americas Corporation Service (Cambridge, MA)[67]. Quality of RNA and its concentration were determined using Agilent 2100.
The raw sequence FASTQ files were aligned to Gencode’s GRCm38 p4 Release M11 genome using STAR version 2.5.4b (parameters used: –outReadsUnmapped Fastx; –outSAMtype BAM SortedByCoordinate; –outSAMattributes All; –outFilterIntronMotifs RemoveNoncanonicalUnannotated)[69]. The abundance of transcripts was calculated from the alignments using Cufflinks version 2.2.1 (parameters used: –G; –L; –library-type fr-firststrand). Samples were merged using default parameters with Cuffmerge[70],[71]. The differential expression was calculated using Cuffdiff’s default parameters. The raw data have been deposited at the NCBI GEO (GSE145818).

In the case of C=C1/C(=C\C=C2/CCC[C@]3(C)[C@@H]([C@H](C)CCCC(C)(C)O)CC[C@@H]23)C[C@@H](O)C[C@@H]1O [1,25(OH)2D3, reference compound], the Adh7 expression level was 1.042, the Aqp11 expression level was 0.9562 and the Arid3b expression level was 1.268. It also gave a Bicd1 expression level of 0.7304, a Btc expression level of 0.9514 and a Car9 expression level of 3.341. The Cbs expression level was 0.4189, the Ccl4 expression level was 0 and the Cd68 expression level was 5.274. It also gave a Cd200 expression level of 0.3998, a Cherp expression level of 35.1454 and a Clec2g expression level of 0. It also gave a Cnnm4 expression level of 11.9457, a Cox15 expression level of 15.3542 and a Cpa2 expression level of 0.3127. For the same compound, the Ctrl expression level was 0.3422, the Dcun1d1 expression level was 6.457 and the Defb42 expression level was 0.2302. It also gave a Dtx1 expression level of 0.2518, an Ehf expression level of 0.2831 and an Ercc2 expression level of 13.8618. It also gave an Erh expression level of 2.728, a Fmnl1 expression level of 0.04415 and a Gys2 expression level of 0. For the same compound, the Hist1h2ab expression level was 1.144, the Hist1h2bg expression level was 0.5636 and the Hist1h2bh expression level was 0. The Hist1h4c expression level was 0, the Isl1 expression level was 0.2249 and the Krt19 expression level was 14.9744. It also gave a Larp1b expression level of 2.787, a Lhx6 expression level of 3.883 and a Lsm5 expression level of 0.9896. For the same compound, the M1ap expression level was 1.719, the Med9os expression level was 0.7826 and the Nckipsd expression level was 15.4716. For the same compound, the Nr3c2 expression level was 0.1558, the Nr6a1 expression level was 0.3582 and the Ntrk3 expression level was 0. The Parvg expression level was 0.1595, the Pde4dip expression level was 20.1604 and the Psd4 expression level was 0.7259. For the same compound, the Ptpa expression level was 235.847, the Ptpn6 expression level was 2.532 and the Rnu3a expression level was 0. For the same compound, the Rpph1 expression level was 0.655, the Rsad1 expression level was 1.447 and the Saa1 expression level was 0.19. For the same compound, the Samd12 expression level was 0.7427, the Scn8a expression level was 0.3603 and the Sgca expression level was 0.3791. For the same compound, the Slc15a4 expression level was 20.8062, the Slc16a5 expression level was 0.1731 and the Snhg9 expression level was 3.721. For the same compound, the St7 expression level was 31.903, the Stmn1 expression level was 3.691 and the Susd1 expression level was 2.151. For the same compound, the Syt8 expression level was 1.517, the Syt12 expression level was 0.9903 and the Tldc2 expression level was 0.381. The Tnnc2 expression level was 0, the Unc5c expression level was 0.3264 and the Wdr17 expression level was 0.7213. For the same compound, the Zbtb18 expression level was 5.623, the Zfp618 expression level was 1.668 and the “number of genes downregulated, FC ≥ 2” value was 566. The “number of genes upregulated, FC ≥ 2” value was 601, the “number of genes solely downregulated” value (FC ≥ 2) was 159 (15%) and the “number of genes solely upregulated” value (FC ≥ 2) was 322 (21.4%).
